This note sets out measurements from patent publication US12043600B2, “Microbiocidal compounds” (SYNGENTA CROP PROTECTION AG, priority 2018, dated 2024).

Some results are limits rather than exact numbers.

For data set [1], the system named is Mycosphaerella arachidis (Cercospora arachidicola). The data set can be described thus: Mycosphaerella arachidis (Cercospora arachidicola)/Liquid Culture (Early Leaf Spot). The data set is classed as cell-based. As to conditions: liquid culture, compared to untreated control. How it is done: (§1) Conidia of the fungus from cryogenic storage are directly mixed into nutrient broth (PDB potato dextrose broth). After placing a (DMSO) solution of test compound into a microtiter plate (96-well format), the nutrient broth containing the fungal spores is added.

Data set [2] has as its system Glomerella lagenarium (Colletotrichum lagenarium). Put plainly: Glomerella lagenarium (Colletotrichum lagenarium)/Liquid Culture (Anthracnose). The class given is cell-based. As to conditions: Colletotrichum orbiculare, liquid culture, compared to untreated control.
In data set [3] the test system is Mycosphaerella graminicola (Septoria tritici). Put plainly: Mycosphaerella graminicola (Septoria tritici)/Liquid Culture (Septoria Blotch). The class given is cell-based. As to conditions: Zymoseptoria tritici; 20 ppm; liquid culture; compared to untreated control. As to the method: Conidia of the fungus from cryogenic storage are directly mixed into nutrient broth (PDB potato dextrose broth). After placing a (DMSO) solution of test compound into a microtiter plate (96-well format), the nutrient broth containing the fungal spores is added. […] The data are presented as the percentage of disease control of each compound for the biological tests against G. lagenarium (Example B3), P. recondita preventative (Example B13), P. teres (Example B15) and M. graminicola (Example B19) as described above. The testing rates of each biological test is specifically described in table C1 below.

The subject of data set [4] is Phaeosphaeria nodorum (Septoria nodorum). Put plainly: Phaeosphaeria nodorum (Septoria nodorum)/Wheat/Leaf Disc Preventative (Glume Blotch). The data set is classed as in vivo. As to conditions: Parastagonospora nodorum, foliar, wheat leaf disc preventative, compared to untreated control. How it is done: Wheat leaf segments cv. Kanzler are placed on agar in a multiwell plate (24-well format) and sprayed with the formulated test compound diluted in water. The leaf disks are inoculated with a spore suspension of the fungus 2 days after application. The inoculated test leaf disks are incubated at 20° C. and 75% rh under a light regime of 12 h light/12 h darkness in a climate cabinet and the activity of a compound is assessed as percent disease control compared to untreated when an appropriate level of disease damage appears in untreated check leaf disks (5-7 days after application).

The subject of another data set is Phytophthora infestans. Put plainly: whole plant or invertebrate. The class given is in vivo. Conditions: in Solanum lycopersicum, foliar, read-out: control of Phytophthora infestans.
Data set [5] deals with Puccinia recondita f. sp. tritici. The data set can be described thus: Puccinia recondita f. sp. tritici/Wheat/Leaf Disc Preventative (Brown Rust). The class given is in vivo. Conditions: foliar, 200 ppm, wheat leaf disc preventative, compared to untreated control, read-out: control of Puccinia recondita f. sp. tritici.
In data set [6] the test system is Magnaporthe grisea (Pyricularia oryzae). Put plainly: whole plant or invertebrate. The data set is classed as in vivo. Conditions: foliar, read-out: control of Magnaporthe grisea.
A further data set concerns Plasmopara viticola. Put plainly: whole plant or invertebrate. The data set is classed as in vivo. Conditions: foliar, read-out: control of Plasmopara viticola.
Data set [7] concerns Monographella nivalis (Microdochium nivale). Put plainly: Monographella nivalis (Microdochium nivale)/Liquid Culture (Foot Rot Cereals). The data set is classed as cell-based. As to conditions: liquid culture, compared to untreated control. How it is done: as §1
Data set [8] concerns Puccinia recondita f. sp. tritici. The data set can be described thus: Puccinia recondita f. sp. tritici/Wheat/Leaf Disc Curative (Brown Rust). The data set is classed as in vivo. Conditions: foliar, wheat leaf disc curative, compared to untreated control. How it is done:
Wheat leaf segments cv. Kanzler are placed on agar in multiwell plates (24-well format). The leaf segments are inoculated with a spore suspension of the fungus. Plates are stored in darkness at 19° C. and 75% rh. The formulated test compound diluted in water is applied 1 day after inoculation. The leaf segments are incubated at 19° C. and 75% rh under a light regime of 12 h light/12 h darkness in a climate cabinet and the activity of a compound is assessed as percent disease control compared to untreated when an appropriate level of disease damage appears in untreated check leaf segments (6-8 days after application).

Data set [9] relates to Botryotinia fuckeliana (Botrytis cinerea). Put plainly: Botryotinia fuckeliana (Botrytis cinerea)/Liquid Culture (Gray Mould). Conditions: liquid culture, compared to untreated control. The data set is classed as cell-based. As to the method: Conidia of the fungus from cryogenic storage are directly mixed into nutrient broth (Vogels broth). After placing a (DMSO) solution of test compound into a microtiter plate (96-well format), the nutrient broth containing the fungal spores is added.

Another data set relates to Phakopsora pachyrhizi. The data set can be described thus: Phakopsora pachyrhizi/Soybean/Preventative (Soybean Rust). The data set is classed as in vivo. Conditions: foliar, 288 h, 200 ppm, soybean leaf disc preventative, compared to untreated control, read-out: control of Phakopsora pachyrhizi.
In data set [10] the test system is Blumeria graminis f. sp. tritici (Erysiphe graminis f. sp. tritici). The data set can be described thus: Blumeria graminis f. sp. tritici/Wheat/Leaf Disc Preventative (Powdery Mildew on Wheat). The class given is in vivo. As to conditions: foliar, wheat leaf disc preventative, compared to untreated control. How it is done: Wheat leaf segments cv. Kanzler are placed on agar in a multiwell plate (24-well format) and sprayed with the formulated test compound diluted in water. The leaf disks are inoculated by shaking powdery mildew infected plants above the test plates 1 day after application. The inoculated leaf disks are incubated at 20° C. and 60% rh under a light regime of 24 h darkness followed by 12 h light/12 h darkness in a climate chamber and the activity of a compound is assessed as percent disease control compared to untreated when an appropriate level of disease damage appears on untreated check leaf segments (6-8 days after application).

Broadly, the inhibition of growth is the drop in the measured response relative to a control, in per cent. The low end stands for a response near the control, the high end for a response far below the control. Usually melting point stands for the temperature, or range, at which the solid turns liquid. Compound `CO/C=C(\Oc1cc(-n2ccc(C3CCCCC3)n2)cc(C)c1C)C(=O)OC` [Compound E-110, methyl (Z)-2-[5-(3-cyclohexylpyrazol-1-yl)-2,3-dimethyl-phenoxy]-3-methoxy-prop-2-enoate] displayed a melting point of 90 to 93 °C. The inhibition of growth at 20 ppm in [1] was no less than 80%. Also, in data set [2], the inhibition of growth at 20 ppm is no less than 80%. Also, in data set [3], the inhibition of growth at 20 ppm was no less than 80%. Besides, the pest or weed control at 200 ppm in [4] was no less than 80%. For the same compound, the pest or weed control at 200 ppm in the data set on Phytophthora infestans is no less than 80%. For the same compound, the pest or weed control at 200 ppm in data set [5] is no less than 80%. Also, the pest or weed control at 200 ppm in [6] was no less than 80%. Also, the pest or weed control at 200 ppm in the data set with Plasmopara viticola is no less than 80%. In data set [7], the inhibition of growth at 20 ppm was no less than 80%. Also, in data set [8], the pest or weed control at 200 ppm is no less than 80%.
Regarding `CCCc1nn(-c2ccc(C)c(O/C(=C\OC)C(=O)OC)c2)cc1Cl` [Compound E-6, methyl (Z)-2-[5-(4-chloro-3-propyl-pyrazol-1-yl)-2-methyl-phenoxy]-3-methoxy-prop-2-enoate], the inhibition of growth at 20 ppm in [1], in data set [2], in [3], in data set [9] and in data set [7] was no less than 80% in each case. In addition, the pest or weed control at 200 ppm (in data set [4]; in the data set with Phytophthora infestans; in data set [5]; in data set [6]; in the data set with Plasmopara viticola) was no less than 80% throughout.
Take `CO/C=C(\Oc1cc(-n2ccc(C3CC3)n2)ccc1Br)C(=O)OC` [Compound E-97, methyl (Z)-2-[2-bromo-5-(3-cyclopropylpyrazol-1-yl)phenoxy]-3-methoxy-prop-2-enoate]: the inhibition of growth at 20 ppm in [1], in data set [2], in [3], in data set [9] and in [7] was no less than 80% throughout. In addition, the pest or weed control at 200 ppm was no less than 50% in the data set on Phakopsora pachyrhizi, no less than 80% in the data set with Phytophthora infestans, no less than 80% in data set [10] and no less than 80% in [5].
Regarding `CO/C=C(\Oc1cc(-n2ccc(C(F)(F)F)n2)ccc1Br)C(=O)OC` [Compound E-87, methyl (Z)-2-[2-bromo-5-[3-(trifluoromethyl)pyrazol-1-yl]phenoxy]-3-methoxy-prop-2-enoate], the inhibition of growth at 20 ppm in data set [1], in data set [2], in data set [3], in data set [9] and in [7] was no less than 80% throughout. The pest or weed control at 200 ppm with Phakopsora pachyrhizi is no less than 50%; in the data set with Phytophthora infestans, no less than 80%; in [10] it was no less than 80%; in data set [5], no less than 80%; with Plasmopara viticola, no less than 80%.
Take `CO/C=C(\Oc1cc(-n2ccc(C)n2)ccc1C)C(=O)OC` [Compound E-104, methyl (Z)-3-methoxy-2-[2-methyl-5-(3-methylpyrazol-1-yl)phenoxy]prop-2-enoate]: the inhibition of growth at 20 ppm in data set [1], in data set [2], in data set [3], in data set [9] and in data set [7] was no less than 80% each time. The pest or weed control at 200 ppm in data set [4], in data set [10], in data set [5] and in data set [6] was no less than 80% each time.
Turning to `CO/C=C(\Oc1cc(-n2ncc(C3CC3)n2)ccc1C)C(=O)OC` [Compound F-8, methyl (Z)-2-[5-(4-cyclopropyltriazol-2-yl)-2-methyl-phenoxy]-3-methoxy-prop-2-enoate], the inhibition of growth at 20 ppm in data set [1], in [2], in data set [3], in data set [9] and in data set [7] was no less than 80% throughout. The pest or weed control at 200 ppm (in data set [4]; in the data set on Phytophthora infestans; in [10]; in the data set on Plasmopara viticola) was no less than 80% throughout.
For `CO/C=C(\Oc1cc(-n2cc(C#N)cn2)ccc1C)C(=O)OC` [Compound E-55, methyl (Z)-2-[5-(4-cyanopyrazol-1-yl)-2-methyl-phenoxy]-3-methoxy-prop-2-enoate], the inhibition of growth at 20 ppm in data set [1], in data set [3], in data set [9] and in [7] was no less than 80% in each case. For the same compound, in data set [5], the pest or weed control at 200 ppm is no less than 80%.
Regarding `CO/C=C(\Oc1cc(-n2ccc(CC#N)n2)ccc1C)C(=O)OC` [Compound E-33, methyl (Z)-2-[5-[3-(cyanomethyl)pyrazol-1-yl]-2-methyl-phenoxy]-3-methoxy-prop-2-enoate], the melting point was 120 to 123 °C. The inhibition of growth at 20 ppm in data set [1] was no less than 80%. In [2], this compound displayed an inhibition of growth at 20 ppm of no less than 80%. The inhibition of growth at 20 ppm in data set [3] was no less than 80%. Also, in data set [5], the pest or weed control at 200 ppm is no less than 80%. The inhibition of growth at 20 ppm in [9] is no less than 80%. Further, the pest or weed control at 200 ppm in the data set with Plasmopara viticola is no less than 80%. Moreover, the inhibition of growth at 20 ppm in [7] was no less than 80%.
In the case of `CO/C=C(\Oc1cc(-n2ccc(C(F)F)n2)ccc1Br)C(=O)OC` [Compound E-86, methyl (Z)-2-[2-bromo-5-[3-(difluoromethyl)pyrazol-1-yl]phenoxy]-3-methoxy-prop-2-enoate], the inhibition of growth at 20 ppm in [1], in data set [2], in data set [3], in [9] and in [7] was no less than 80% in each case. The pest or weed control at 200 ppm in [4], in [10], in data set [5] and in data set [6] was no less than 80% throughout.
The compound `CO/C=C(\Oc1cc(-n2cc(Cl)c(C(C)C)n2)ccc1C)C(=O)OC` [Compound E-11, methyl (Z)-2-[5-(4-chloro-3-isopropyl-pyrazol-1-yl)-2-methyl-phenoxy]-3-methoxy-prop-2-enoate] came in with a melting point of 95 to 100 °C. Also, the inhibition of growth at 20 ppm in [1] was no less than 80%. Also, the inhibition of growth at 20 ppm in [3] was no less than 80%. The pest or weed control at 200 ppm in data set [4] was no less than 80%. Moreover, the pest or weed control at 200 ppm in [5] is no less than 80%. Besides, the pest or weed control at 200 ppm in data set [6] is no less than 80%. The pest or weed control at 200 ppm in the data set on Plasmopara viticola was no less than 80%. The compound also registered an inhibition of growth at 20 ppm in data set [7] of no less than 80%. Moreover, in [8], the pest or weed control at 200 ppm was no less than 80%.
Turning to `CCc1ccn(-c2ccc(C)c(O/C(=C\OC)C(=O)OC)c2)n1` [Compound E-91, methyl (Z)-2-[5-(3-ethylpyrazol-1-yl)-2-methyl-phenoxy]-3-methoxy-prop-2-enoate], the inhibition of growth at 20 ppm in data set [1], in [2], in data set [3], in data set [9] and in [7] was no less than 80% each time. For the same compound, the pest or weed control at 200 ppm in the data set with Phakopsora pachyrhizi was no less than 50%; in [10], no less than 80%; in [5], no less than 80%.
